Patent publication US20250154172A1, “PRMT5 INHIBITORS AND USES THEREOF” (Gilead Sciences, Inc., priority 2023, published 2025)

System: HCT116 MTAP-deleted cell lines
Test: Cell viability assay for HCT116 isogenic pair (CellTitre-Glo, 7 days)
Format: cell-based
Details: Homo sapiens, HCT-116, 168 h, 7 days of treatment, cell line not given
Description: Control compounds were analyzed in parallel each time for quality control.
In Brief, on Day −1, a serial dilution of stock compounds in DMSO was performed using BioMek liquid handlers and dispensed using Echo acoustic dispenser into 384 well plates. Both tool compounds and sample compounds were spotted in the same plate for a dose response of PRMT5 inhibitors. Compound plates were stored as frozen until the cells were ready for seeding.
On Day 0, 100 HCT WT or HCT116 MTAP-deleted cells were seeded in compound-containing 384 well plates (50 μl per well) in RPMI 1640 media supplemented with 10% heat inactivated fetal bovine serum, Glutamax and penicillin streptomycin using EL460 liquid dispenser 5 μl cassette (BioTek, part no. 7170011). After equilibrating the plate in room temperature, the cells were incubated for 7 days inside the sealed incubator set at 37° C. with 90% humidity and 5% CO2.
On Day 7, the viability of cells was measured using a CTG assay kit (CellTitre-Glo; Promega cat no. G7573). Shortly, 40 μl per well of luminescent cell viability assay reagent were dispensed using EL460 liquid dispenser 5 μl cassette. CTG luminescence signal was measured using an EnVision plate reader (PerkinElmer) in accordance with manufacturer's instruction. The CCso values for each compound after 7 days of treatment were calculated using 4 parameter non-linear logistical curve fit.
For the cell viability assay ie CC50 shown in nM in Table 3.

Structure (SMILES) | CC50
Nc1nc2cnc(C(=O)N3CC[C@H]4C[C@@H]3c3ccc(OC(F)(F)F)cc3O4)cc2c2c1COC2 [Example Ca-46, (4-amino-1,3-dihydrofuro[3,4-c][1,7]naphthyridin-8-yl)((2S,6R)-9-(trifluoromethoxy)-3,4-dihydro-2H-2,6-methanobenzo[b][1,5]oxazocin-5(6H)-yl)methanone] | 25 nM
Nc1nc2cnc(C(=O)N3CCC[C@@H]4Oc5cc(C(F)(F)F)ccc5[C@@H]43)cc2c2c1COC2 (racemic) [Example Ca-1, (Rac)-(4-amino-1,3-dihydrofuro[3,4-c][1,7]naphthyridin-8-yl)((4aS,9bS)-7-(trifluoromethyl)-3,4,4a,9b-tetrahydrobenzofuro[3,2-b]pyridin-1(2H)-yl)methanone] | 26 nM
Cn1ncc2c(N)nc3cnc(C(=O)N4CCC[C@@H]5Oc6cc(OC(F)F)c(F)cc6[C@@H]54)cc3c21 (racemic) [Example Ca-21, (Rac)-(4-amino-1-methyl-11H-pyrazolo[4,3-c][1,7]naphthyridin-8-yl)(7-(difluoromethoxy)-8-fluoro-3,4,4a,9b-tetrahydrobenzofuro[3,2-b]pyridin-1(2H)-yl)methanone] | 15 nM
Cn1ncc2c(N)nc3ccc(C(=O)N4CCO[C@@H]5Cc6cc(C(F)(F)F)ccc6[C@@H]54)cc3c21 (racemic) [Example Ca-11, (Rac)-(4-amino-1-methyl-1H-pyrazolo[4,3-c]quinolin-8-yl)(7-(trifluoromethyl)-2,3,9,9a-tetrahydroindeno[2,1-b][1,4]oxazin-4(4aH)-yl)methanone] | 65 nM
Cn1ncc2c(N)nc3cc(F)c(C(=O)N4CCC[C@@H]5Oc6cc(-c7cnn(C(F)(F)F)c7)ccc6[C@@H]54)cc3c21 [Example Ca-56, (4-amino-7-fluoro-1-methyl-1H-pyrazolo[4,3-c]quinolin-8-yl)((4aS,9bS)-7-(1-(trifluoromethyl)-1H-pyrazol-4-yl)-3,4,4a,9b-tetrahydrobenzofuro[3,2-b]pyridin-1(2H)-yl)methanone] | 4 nM
Cn1ncc2c(N)nc3ccc(C(=O)N4CC[C@@H]5Oc6cc(C(F)(F)F)ccc6[C@@H]54)cc3c21 (racemic) [Example Ca-55, Rac-(4-amino-1-methyl-1H-pyrazolo[4,3-c]quinolin-8-yl)((3aS,8bS)-6-(trifluoromethyl)-2,3,3a,8b-tetrahydro-1H-benzofuro[3,2-b]pyrrol-1-yl)methanone] | 106 nM
Cn1ncc2c(N)nc3cnc(C(=O)N4CCO[C@@H]5Cc6cc(C(F)(F)F)cc(F)c6[C@@H]54)cc3c21 [Example Ca-51, (4-amino-1-methyl-1H-pyrazolo[4,3-c][1,7]naphthyridin-8-yl)((4aS,9aR)-5-fluoro-7-(trifluoromethyl)-2,3,9,9a-tetrahydroindeno[2,1-b][1,4]oxazin-4(4aH)-yl)methanone] | 195 nM
CN(C(=O)c1cc2c(cn1)nc(N)c1cnn(C)c12)[C@@H]1c2ccc(C(F)(F)F)cc2[C@H]2C[C@H]21 (single isomer, unassigned) [Example Ca-27] | 88 nM
Nc1nc2cnc(C(=O)N3C[C@@H](F)C[C@@H]4Oc5cc(C(F)(F)F)cc(F)c5[C@@H]43)cc2c2c1COC2 [Example Ca-57, (4-amino-1,3-dihydrofuro[3,4-c][1,7]naphthyridin-8-yl)((3S,4aS,9bS)-3,9-difluoro-7-(trifluoromethyl)-3,4,4a,9b-tetrahydrobenzofuro[3,2-b]pyridin-1(2H)-yl)methanone] | 20 nM
Cn1ncc2c(N)nc3cnc(C(=O)N4CCO[C@@H]5Cc6cc(OC(F)(F)F)ccc6[C@@H]54)cc3c21 [Example Ca-53, (4-amino-1-methyl-1H-pyrazolo[4,3-c][1,7]naphthyridin-8-yl)((4aS,9aR)-7-(trifluoromethoxy)-2,3,9,9a-tetrahydroindeno[2,1-b][1,4]oxazin-4(4aH)-yl)methanone] | 33 nM
Cn1ncc2c(N)nc3cnc(C(=O)N4CCO[C@@H]5Cc6cc(Br)c(F)cc6[C@@H]54)cc3c21 [Example Ca-29, (4-amino-1-methyl-1H-pyrazolo[4,3-c][1,7]naphthyridin-8-yl)((4aS,9aR)-7-bromo-6-fluoro-2,3,9,9a-tetrahydroindeno[2,1-b][1,4]oxazin-4(4aH)-yl)methanone] | 5 nM
C[C@@H]1C[C@@H]2CCc3cc(C(F)(F)F)ccc3[C@@H]2N(C(=O)c2cc3c(cn2)nc(N)c2cnn(C)c23)C1 (racemic) [Example Ca-39, (Rac)-(4-amino-1-methyl-1H-pyrazolo[4,3-c][1,7]naphthyridin-8-yl)((3R,4aS,10bR)-3-methyl-8-(trifluoromethyl)-3,4,4a,5,6,10b-hexahydrobenzo[h]quinolin-1(2H)-yl)methanone] | 79 nM
[2H]C1([2H])CC[C@@H]2Oc3cc(C(F)(F)F)ccc3[C@@H]2N1C(=O)c1cc2c3c(c(N)nc2cn1)COC3 [Example Ca-48, (4-amino-1,3-dihydrofuro[3,4-c][1,7]naphthyridin-8-yl)((4aS,9bS)-7-(trifluoromethyl)-3,4,4a,9b-tetrahydrobenzofuro[3,2-b]pyridin-1(2H)-yl-2,2-d2)methanone] | 12 nM
Cn1ncc2c(N)nc3cnc(C(=O)N4CC[C@H]5C[C@@H]4c4ccc(C(F)(F)F)nc4O5)cc3c21 [Example Ca-2, (4-amino-1-methyl-1H-pyrazolo[4,3-c][1,7]naphthyridin-8-yl)((2S,6R)-9-(trifluoromethyl)-3,4-dihydro-2H-2,6-methanopyrido[2,3-b][1,5]oxazocin-5(6H)-yl)methanone] | 8 nM
Cn1ncc2c(N)nc3cnc(C(=O)N4CCC[C@@H]5Oc6c(ccc(OC(F)(F)F)c6F)[C@@H]54)cc3c21 [Example Ca-7, (4-amino-1-methyl-1H-pyrazolo[4,3-c][1,7]naphthyridin-8-yl)((4aS,9bS)-6-fluoro-7-(trifluoromethoxy)-3,4,4a,9b-tetrahydrobenzofuro[3,2-b]pyridin-1(2H)-yl)methanone] | 13 nM
C[C@H]1CN(C(=O)c2cc3c(cn2)nc(N)c2cnn(C)c23)[C@H]2c3ccc(Br)c(F)c3C[C@H]2O1 (single isomer, unassigned) [Example Ca-31] | 32 nM
C[C@@H]1CN(C(=O)c2cc3c(cn2)nc(N)c2cnn(C)c23)[C@H]2c3ccc(C(F)(F)F)cc3C[C@H]2O1 [Example Ca-49, (4-amino-1-methyl-1H-pyrazolo[4,3-c][1,7]naphthyridin-8-yl)((2R,4aS,9aR)-2-methyl-7-(trifluoromethyl)-2,3,9,9a-tetrahydroindeno[2,1-b][1,4]oxazin-4(4aH)-yl)methanone] | 26 nM
Cn1ncc2c3cc(C(=O)N4CC[C@H]5C[C@@H]4c4ccc(C(F)(F)F)cc4O5)ncc3nc(N)c21 [Example Ca-44, (4-amino-3-methyl-3H-pyrazolo[3,4-c][1,7]naphthyridin-8-yl)((2S,6R)-9-(trifluoromethyl)-3,4-dihydro-2H-2,6-methanobenzo[b][1,5]oxazocin-5(6H)-yl)methanone] | 139 nM
C[C@H]1CN(C(=O)c2cc3c(cn2)nc(N)c2cnn(C)c23)[C@H]2c3ccc(Cl)cc3C[C@H]2O1 (single isomer, unassigned) [Example Ca-38] | 129 nM
CN(C(=O)c1cc2c(cn1)nc(N)c1cnn(C)c12)[C@@H]1c2ccc(C(F)(F)F)cc2[C@@H]2C[C@H]12 (single isomer, unassigned) [Example Ca-28] | 1290 nM
